# Experimental data published in PMC4150738 (Analytica chimica acta, 2014).
# Where two headings read alike, the source gives them in different places.
# Key:
# [1] = Short-term stability in fortified plasma; assay type: physicochemical, human
# monoamine transporter = conditions: in vitro transporter assays, similar to cocaine; ref 13 (Baumann et al.); cited from earlier work
# [2] = ref 24 (Wang et al); cited from earlier work
# [3] = cited from earlier work
# [4] = 1,000 μg L^−1, room temp, 4°C and −20°C for 1 to 14 days; ref 29 (Johnson et al); cited from earlier work
# [5] = ref 24 (Wang et al), cited from earlier work
# [6] = for change of plasma concentration without the deconjugation step (hydrolysis): rat plasma after 0.5 mg kg-1 MDPV ip or sc, with vs without hydrolysis; for plasma concentration, Without hydrolysis / plasma concentration, Hydrolysis / plasma concentration range after intraperitoneal dosing / plasma concentration range after the subcutaneous dose: rat plasma; for plasma concentration, Without hydrolysis / plasma concentration, Hydrolysis: LOQ 0.25 μg L^−1; for plasma concentration, Hydrolysis: with hydrolysis; for plasma concentration range after intraperitoneal dosing: 0.5 mg kg^−1 MDPV intraperitoneal; for plasma concentration range after intraperitoneal dosing / plasma concentration range after the subcutaneous dose: samples 10-480 min after dosing; for plasma concentration range after the subcutaneous dose: 0.5 mg kg^−1 MDPV subcutaneous
# [7] = High QC 750 μg L^−1, n=5, vs freshly fortified
# [8] = Low QC 0.75 μg L^−1, n=5, vs freshly fortified
# [9] = Medium QC 25 μg L^−1, n=5, vs freshly fortified
# [10] = 0.5 mg kg-1 MDPV ip, 0 min (before dosing)
# [11] = 0.5 mg kg-1 MDPV sc, 0 min (before dosing)
smiles,measurement,setting,value
"CCCC(C(=O)c1ccc2c(c1)OCO2)N1CCCC1 (centres unmarked) [MDPV, 3,4-methylenedioxypyrovalerone, reference compound]",Stability (% difference) 3 freeze-thaw cycles,[1]; [7],1.5 % difference
same,Stability (% difference) 72h at 4°C,[1]; [7],3.5 % difference
same,Stability (% difference) 3 freeze-thaw cycles,[1]; [8],3.5 % difference
same,Stability (% difference) 72h at 4°C,[1]; [8],7.7 % difference
same,Stability (% difference) 3 freeze-thaw cycles,[1]; [9],−1.1 % difference
same,Stability (% difference) 72h at 4°C,[1]; [9],2.2 % difference
same,monoamine transporter blockade,monoamine transporter,potent monoamine transporter blocker
same,"concentration in plasma, horse-doping",[2],5.8 ng/mL
same,"MDPV blood concentrations, human performance cases","[3]; 9 human performance cases, ref 26 (Marinetti et al.)",6 to 368 µg/L
same,"MDPV blood concentrations, postmortem cases","[3]; 23 postmortem cases, ref 26 (Marinetti et al.)",10 to 640 µg/L
same,serum MDPV concentrations,"[3]; Finnish drivers stopped for suspicion of driving under the influence of drugs, ref 25 (Kriikku et al.)",20 to 8000 µg/L
same,"MDPV concentrations in human plasma, in most cases",[3],below 1000 μg L^−1
same,stability in fortified plasma,[4],stable
same,"stability of MDPV in plasma, time stable",[5]; at room temperature,27 h
same,"stability of MDPV in plasma, time stable",[5]; at −20°C,600 h
same,"stability of MDPV in plasma, freeze-thaw cycles",[5],3 freeze-thaw cycles
same,change of plasma concentration without the deconjugation step (hydrolysis),[6],did not change
same,"plasma concentration, Without hydrolysis",[6]; [10],<LOQ
same,"plasma concentration, Hydrolysis","[6]; 0.5 mg kg-1 MDPV ip, 10 min",8.0 ng/mL
same,"plasma concentration, Without hydrolysis","[6]; 0.5 mg kg-1 MDPV ip, 10 min",9.4 ng/mL
same,"plasma concentration, Hydrolysis","[6]; 0.5 mg kg-1 MDPV ip, 20 min",6.6 ng/mL
same,"plasma concentration, Without hydrolysis","[6]; 0.5 mg kg-1 MDPV ip, 20 min",7.2 ng/mL
same,"plasma concentration, Hydrolysis","[6]; 0.5 mg kg-1 MDPV ip, 30 min",7.6 ng/mL
same,"plasma concentration, Without hydrolysis","[6]; 0.5 mg kg-1 MDPV ip, 30 min",8.4 ng/mL
same,"plasma concentration, Hydrolysis","[6]; 0.5 mg kg-1 MDPV ip, 60 min",3.6 ng/mL
same,"plasma concentration, Without hydrolysis","[6]; 0.5 mg kg-1 MDPV ip, 60 min",2.9 ng/mL
same,"plasma concentration, Hydrolysis","[6]; 0.5 mg kg-1 MDPV ip, 120 min",1.8 ng/mL
same,"plasma concentration, Without hydrolysis","[6]; 0.5 mg kg-1 MDPV ip, 120 min",2.2 ng/mL
same,"plasma concentration, Hydrolysis","[6]; 0.5 mg kg-1 MDPV ip, 240 min",1.3 ng/mL
same,"plasma concentration, Without hydrolysis","[6]; 0.5 mg kg-1 MDPV ip, 240 min",0.6 ng/mL
same,"plasma concentration, Hydrolysis","[6]; 0.5 mg kg-1 MDPV ip, 480 min",0.9 ng/mL
same,"plasma concentration, Without hydrolysis","[6]; 0.5 mg kg-1 MDPV ip, 480 min",1.2 ng/mL
same,"plasma concentration, Without hydrolysis",[6]; [11],<LOQ
same,"plasma concentration, Hydrolysis","[6]; 0.5 mg kg-1 MDPV sc, 10 min",107.5 ng/mL
same,"plasma concentration, Without hydrolysis","[6]; 0.5 mg kg-1 MDPV sc, 10 min",120.1 ng/mL
same,"plasma concentration, Hydrolysis","[6]; 0.5 mg kg-1 MDPV sc, 20 min",82.1 ng/mL
same,"plasma concentration, Without hydrolysis","[6]; 0.5 mg kg-1 MDPV sc, 20 min",92.9 ng/mL
same,"plasma concentration, Hydrolysis","[6]; 0.5 mg kg-1 MDPV sc, 30 min",51.7 ng/mL
same,"plasma concentration, Without hydrolysis","[6]; 0.5 mg kg-1 MDPV sc, 30 min",56.6 ng/mL
same,"plasma concentration, Hydrolysis","[6]; 0.5 mg kg-1 MDPV sc, 60 min",38.4 ng/mL
same,"plasma concentration, Without hydrolysis","[6]; 0.5 mg kg-1 MDPV sc, 60 min",34 ng/mL
same,"plasma concentration, Hydrolysis","[6]; 0.5 mg kg-1 MDPV sc, 120 min",9.9 ng/mL
same,"plasma concentration, Without hydrolysis","[6]; 0.5 mg kg-1 MDPV sc, 120 min",1.5 ng/mL
same,"plasma concentration, Hydrolysis","[6]; 0.5 mg kg-1 MDPV sc, 240 min",4.8 ng/mL
same,"plasma concentration, Without hydrolysis","[6]; 0.5 mg kg-1 MDPV sc, 240 min",3.1 ng/mL
same,"plasma concentration, Hydrolysis","[6]; 0.5 mg kg-1 MDPV sc, 480 min",1.7 ng/mL
same,"plasma concentration, Without hydrolysis","[6]; 0.5 mg kg-1 MDPV sc, 480 min",1.4 ng/mL
same,plasma concentration range after intraperitoneal dosing,[6],0.9 to 8.0 ng/mL
same,plasma concentration range after the subcutaneous dose,[6],1.7 to 107.5 ng/mL
"CCCC(C(=O)c1ccc(O)c(O)c1)N1CCCC1 (centres unmarked) [3,4-catechol-PV, 3,4-dihydroxypyrovalerone]",Stability (% difference) 3 freeze-thaw cycles,[1]; [7],−3.6 % difference
same,Stability (% difference) 72h at 4°C,[1]; [7],−3 % difference
same,Stability (% difference) 3 freeze-thaw cycles,[1]; [8],−3.2 % difference
same,Stability (% difference) 72h at 4°C,[1]; [8],−7.3 % difference
same,Stability (% difference) 3 freeze-thaw cycles,[1]; [9],−2.6 % difference
same,Stability (% difference) 72h at 4°C,[1]; [9],6.5 % difference
same,change of plasma concentration without the deconjugation step (hydrolysis),[6],greatly decreased
same,form present in rat plasma,"[6]; rat plasma after MDPV, concluded from hydrolysis comparison",primarily present as the conjugated forms
same,"plasma concentration, Without hydrolysis",[6]; [10],<LOQ
same,"plasma concentration, Hydrolysis","[6]; 0.5 mg kg-1 MDPV ip, 10 min",4.3 ng/mL
same,"plasma concentration, Without hydrolysis","[6]; 0.5 mg kg-1 MDPV ip, 10 min",<LOQ
same,"plasma concentration, Hydrolysis","[6]; 0.5 mg kg-1 MDPV ip, 20 min",5.1 ng/mL
same,"plasma concentration, Without hydrolysis","[6]; 0.5 mg kg-1 MDPV ip, 20 min",<LOQ
same,"plasma concentration, Hydrolysis","[6]; 0.5 mg kg-1 MDPV ip, 30 min",4.9 ng/mL
same,"plasma concentration, Without hydrolysis","[6]; 0.5 mg kg-1 MDPV ip, 30 min",<LOQ
same,"plasma concentration, Hydrolysis","[6]; 0.5 mg kg-1 MDPV ip, 60 min",3.7 ng/mL
same,"plasma concentration, Without hydrolysis","[6]; 0.5 mg kg-1 MDPV ip, 60 min",<LOQ
same,"plasma concentration, Hydrolysis","[6]; 0.5 mg kg-1 MDPV ip, 120 min",9.6 ng/mL
same,"plasma concentration, Without hydrolysis","[6]; 0.5 mg kg-1 MDPV ip, 120 min",<LOQ
same,"plasma concentration, Hydrolysis","[6]; 0.5 mg kg-1 MDPV ip, 240 min",11.8 ng/mL
same,"plasma concentration, Without hydrolysis","[6]; 0.5 mg kg-1 MDPV ip, 240 min",<LOQ
same,"plasma concentration, Hydrolysis","[6]; 0.5 mg kg-1 MDPV ip, 480 min",5.3 ng/mL
same,"plasma concentration, Without hydrolysis","[6]; 0.5 mg kg-1 MDPV ip, 480 min",<LOQ
same,"plasma concentration, Without hydrolysis",[6]; [11],<LOQ
same,"plasma concentration, Hydrolysis","[6]; 0.5 mg kg-1 MDPV sc, 10 min",1.3 ng/mL
same,"plasma concentration, Without hydrolysis","[6]; 0.5 mg kg-1 MDPV sc, 10 min",<LOQ
same,"plasma concentration, Hydrolysis","[6]; 0.5 mg kg-1 MDPV sc, 20 min",2.7 ng/mL
same,"plasma concentration, Without hydrolysis","[6]; 0.5 mg kg-1 MDPV sc, 20 min",<LOQ
same,"plasma concentration, Hydrolysis","[6]; 0.5 mg kg-1 MDPV sc, 30 min",3.1 ng/mL
same,"plasma concentration, Without hydrolysis","[6]; 0.5 mg kg-1 MDPV sc, 30 min",<LOQ
same,"plasma concentration, Hydrolysis","[6]; 0.5 mg kg-1 MDPV sc, 60 min",3.8 ng/mL
same,"plasma concentration, Without hydrolysis","[6]; 0.5 mg kg-1 MDPV sc, 60 min",<LOQ
same,"plasma concentration, Hydrolysis","[6]; 0.5 mg kg-1 MDPV sc, 120 min",9.4 ng/mL
same,"plasma concentration, Without hydrolysis","[6]; 0.5 mg kg-1 MDPV sc, 120 min",<LOQ
same,"plasma concentration, Hydrolysis","[6]; 0.5 mg kg-1 MDPV sc, 240 min",9.8 ng/mL
same,"plasma concentration, Without hydrolysis","[6]; 0.5 mg kg-1 MDPV sc, 240 min",<LOQ
same,"plasma concentration, Hydrolysis","[6]; 0.5 mg kg-1 MDPV sc, 480 min",3.6 ng/mL
same,"plasma concentration, Without hydrolysis","[6]; 0.5 mg kg-1 MDPV sc, 480 min",<LOQ
same,plasma concentration range after intraperitoneal dosing,[6],3.7 to 11.8 ng/mL
same,plasma concentration range after the subcutaneous dose,[6],1.3 to 9.8 ng/mL
